{"source": "patent US7141428B2", "about": "(priority 2000, dated 2006)", "origin": "cited, not measured here", "key": {"growth cone collapse": {"system": "growth cone collapse", "conditions": "collapse induced by activation of Rho or ROK"}, "[1]": {"target": "Rho kinase (Rho-associated protein kinase, p160ROCK) (Homo sapiens, UniProt Q13464)", "sequence (Q13464 whole entry, looked up)": "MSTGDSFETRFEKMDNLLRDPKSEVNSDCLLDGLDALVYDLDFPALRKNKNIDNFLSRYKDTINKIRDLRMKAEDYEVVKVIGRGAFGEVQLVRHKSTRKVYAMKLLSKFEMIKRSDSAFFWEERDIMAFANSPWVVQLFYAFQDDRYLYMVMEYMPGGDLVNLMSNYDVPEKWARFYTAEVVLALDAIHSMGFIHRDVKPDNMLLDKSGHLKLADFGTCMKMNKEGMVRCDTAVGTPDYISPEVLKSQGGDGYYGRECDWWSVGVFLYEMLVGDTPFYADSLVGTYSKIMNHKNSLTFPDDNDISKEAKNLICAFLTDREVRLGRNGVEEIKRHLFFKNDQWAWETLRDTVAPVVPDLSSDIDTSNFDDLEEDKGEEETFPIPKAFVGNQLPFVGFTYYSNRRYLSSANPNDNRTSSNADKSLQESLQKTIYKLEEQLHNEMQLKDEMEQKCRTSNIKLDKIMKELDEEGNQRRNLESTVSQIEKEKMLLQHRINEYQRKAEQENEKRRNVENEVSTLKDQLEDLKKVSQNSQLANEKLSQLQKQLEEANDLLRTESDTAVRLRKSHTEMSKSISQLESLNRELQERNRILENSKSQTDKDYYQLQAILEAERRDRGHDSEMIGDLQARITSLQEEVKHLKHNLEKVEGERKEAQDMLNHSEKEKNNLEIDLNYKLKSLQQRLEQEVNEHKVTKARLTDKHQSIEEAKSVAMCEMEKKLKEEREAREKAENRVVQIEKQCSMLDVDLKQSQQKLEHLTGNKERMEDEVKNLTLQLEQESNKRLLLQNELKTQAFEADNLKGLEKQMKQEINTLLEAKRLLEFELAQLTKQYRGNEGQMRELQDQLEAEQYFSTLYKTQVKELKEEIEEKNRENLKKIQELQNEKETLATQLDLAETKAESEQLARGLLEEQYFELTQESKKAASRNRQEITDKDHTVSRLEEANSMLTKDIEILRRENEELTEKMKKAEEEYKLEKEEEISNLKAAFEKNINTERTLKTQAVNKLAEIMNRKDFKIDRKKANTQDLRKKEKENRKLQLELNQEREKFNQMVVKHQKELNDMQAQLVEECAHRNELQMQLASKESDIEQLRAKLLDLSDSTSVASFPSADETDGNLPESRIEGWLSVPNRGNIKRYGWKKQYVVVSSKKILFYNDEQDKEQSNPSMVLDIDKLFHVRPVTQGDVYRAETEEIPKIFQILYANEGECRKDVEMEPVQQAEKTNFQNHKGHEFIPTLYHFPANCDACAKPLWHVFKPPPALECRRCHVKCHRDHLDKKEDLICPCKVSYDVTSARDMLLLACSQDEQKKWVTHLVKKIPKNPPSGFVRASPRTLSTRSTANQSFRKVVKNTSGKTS"}}}
{"smiles": "C[C@@H](N)[C@H]1CC[C@H](C(=O)Nc2ccncc2)CC1", "note": "[Y-27632, (R)-(+)-trans-N-(4-pyridyl)-4-(1-aminoethyl)-cyclohexanecarboamide]", "values": [{"measurement": "prevention of growth cone collapse", "setting": "growth cone collapse", "result": "can be prevented"}, {"measurement": "concentration at which Rho kinase is inhibited", "setting": "[1]", "result": "sub-micromolar"}]}
